Data published in patent publication US11279744B2, “Neuropeptide Y fragment capable of releasing hematopoietic stem cells into blood and treating osteoporosis” (Kyungpook National University Industry-Academic Cooperation …, priority 2017, dated 2022).
No end group written: not given here.

Assays:
[1] = tested on: hematopoietic stem cell adhesion factors (Sdf-1a, KitI, Angpt1) present in osteoblasts; experiment: expression of hematopoietic stem cell adhesion factors in osteoblasts, real-time quantitative PCR; format: cell-based, mouse; settings: 10 nM peptide for 3 days; compared to osteoblasts (control) not treated with peptides; fold change
Description: All mice used in the experiment were 6 to 8 weeks old mice, C57BL/6 mice, and purchased from Jackson Laboratory (Bar Harbor, Me., USA). NPY (21-28) (SEQ ID NO: 1), NPY (24-31) (SEQ ID NO: 2), NPY (29-36) (SEQ ID NO: 3), NPY D25 (21-28) (SEQ ID NO: 4), NPY D26 (21-28) (SEQ ID NO: 5), NPY D25, 26 (21-28) (SEQ ID NO: 6), NPY (21-36) (Osteopep2) (SEQ ID NO: 7) were prepared from Anygen. Full length NPY (SEQ ID NO: 8) was purchased from Bachem. 10 nM of each peptide was diluted in each medium and injected for in vitro experiments. The NPY D^25(21-28) refers to a peptide in which arginine, the fifth amino acid of the amino acid sequence of NPY (21-28), is modified to D-type, the NPY D^26(21-28) refers to a peptide in which the sixth amino acid histidine is modified to D-form, and the D^25,26(21-28) refers to a peptide in which both the fifth and sixth amino acids are modified to D-form, respectively.
Four to six weeks old C57BL/6 mice were sacrificed after anesthesia, and then tibias and femurs were dissected. Bone marrow was harvested from tibias and femurs and single cell suspensions were obtained using a 40 μm cell strainer (Becton-Dickinson LAβware, Franklin Lakes, N.J.). Approximately […] were dispensed into 75-cm 2 flasks containing mesenchymal stem cells Stimulatory Supplements with antibiotics (Stem Cell Technologies, Inc) and MesenCult™ MSCBasal medium. The cells were incubated for 1 week and further incubated for 3 weeks with StemXVivo Osteogenic/Adipogenic Base Media (R & D systems) supplemented with StemXVivo Osteogenic supplement (20×) and penicillin-streptomycin (100×) for differentiation into osteoblasts.
Real-time quantitative PCR was used to measure expression levels of hematopoietic stem cell adhesion factors (Sdf-1a, KitI, Angpt1) present in osteoblasts. Total RNA was extracted from cell eluate and bone marrow cells using the RNeasy Plus mini kit (Qiagen, Korea, Ltd), and cDNAs were synthesized from 5 μg total RNA using a kit in Clontech (Mountain View, Calif.). In addition, using a Corbett research RG-6000 real-time PCR instrument, Real-time quantitative PCR was performed at 95° C. for 10 minutes; at 95° C., for 10 seconds; at 58° C., for 15 seconds; at 72° C. for 20 seconds as one cycle, and 40 cycles were repeated.
First, bone marrow was harvested from 4 to 6 weeks old C57BL6 mice, and mesenchymal stem cells (BM-MSCs) in bone marrow were collected, and then cultured for 3 weeks in osteoblast differentiation induction medium for the differentiation into osteoblasts. After 28 days, each peptide was treated with 10 nM for 3 days, and bone cells were collected and examined for expression levels of three adhesion factors by real-time quantitative PCR. Osteopep2 and its parent NPY were used as positive controls.

[2] = tested on: animal models of osteoporosis; experiment: Micro CT bone density in animal models of osteoporosis; format: in vivo, mouse; settings: OVX mice, 50 μg/kg i.p. twice a day for 4 weeks; femur microCT; compared to PBS
Description: To make an osteoporosis model, 10-18 12 weeks old female mice per group underwent ovarian ablation. A week later, 50 μg/kg of NPY(21-28), NPY D^25(21-28), NPY D^26(21-28), NPY D^25,26(21-28), Osteopep2, NPY and 100 μl of PBS(Gibco) were intraperitoneally administered twice a day for 4 weeks at 12 hour intervals. Alendronate (Sigma), used as a competitive drug, was intraperitoneally administered once a week for 4 weeks at a dose of 50 μg/kg. As a control group, only Sham model of osteoporosis was performed by subcutaneous dissection of female mouse. Mice were placed in experimental groups using the Block randomization method, and all mouse experiments were approved through the Kyungpook National University Institutional Animal Care and Use Committee. The femurs were separated from the mouse and refrigerated in 80% ethanol, and in order to measure change of bone density, the bone volume/total volume and trabecular thickness were measured by analyzing the area between 0.7 mm and 2.3 mm from the growth plate baseline with the Quantum FX microCT Imaging System. Femurs were separated from mice after the last administration of NPY (21-28) at 4 weeks. To determine the change of bone density, bone density (bone volume/total volume) and bone tissue thickness (trabecular thickness) were measured with the Quantum FX microCT Imaging System. Femurs were separated from mice after the last administration of NPY D^25(21-28), NPY D^26(21-28), and NPY D^25,26(21-28) at 4 weeks. To determine the change of bone density, bone density (bone volume/total volume) and bone tissue thickness (trabecular thickness) were measured with the Quantum FX microCT Imaging System.

[3] = tested on: osteoclasts in bone marrow; experiment: TRAP staining of osteoclasts in bone marrow of osteoporosis animal models; format: in vivo, mouse; settings: OVX mice, 50 μg/kg i.p. twice a day for 4 weeks; compared to PBS
Description: To make an osteoporosis model, 10-18 12 weeks old female mice per group underwent ovarian ablation. A week later, 50 μg/kg of NPY(21-28), NPY D^25(21-28), NPY D^26(21-28), NPY D^25,26(21-28), Osteopep2, NPY and 100 μl of PBS(Gibco) were intraperitoneally administered twice a day for 4 weeks at 12 hour intervals. Alendronate (Sigma), used as a competitive drug, was intraperitoneally administered once a week for 4 weeks at a dose of 50 μg/kg. As a control group, only Sham model of osteoporosis was performed by subcutaneous dissection of female mouse. Mice were placed in experimental groups using the Block randomization method, and all mouse experiments were approved through the Kyungpook National University Institutional Animal Care and Use Committee.
The femurs were separated from the mice and fixed in 4% paraformaldehyde for 24 hours, and tissue was decalcified in 10% EDTA for 5 weeks. It was then dehydrated with a series of diluted alcohols, paraffinized, and prepared into […] paraffin sections.
For TRAP staining, sections were deparaffinized, stained with 1.33 mM Fast Red Violet LB Salt (Sigma-Aldrich) in 50 mM sodium acetate (pH 5.0) containing 225 μM Naphthol AS-MX phosphate (Sigma-Aldrich, St Louis, Mo., USA), 0.84% N, N-dimethylformamide (Sigma-Aldrich) and 50 mM sodium tartrate, and incubated for 30 minutes. After incubation, the sections were washed with distilled water and counterstained with 1% methyl green.
Histomorphometric analysis was performed using the OsteoMeasure program (Extensive interactive Bone Histomorphometry Analysis System).
After the last administration at 4 weeks of NPY (21-28), the femurs were separated from the mice and the number of osteoclasts in the bone marrow was measured by TRAP staining.
After the last administration at 4 weeks of NPY D^25(21-28), NPY D^26(21-28), and NPY D^25,26(21-28), the femurs were separated from the mice and the number of osteoclasts in the bone marrow was measured by TRAP staining.

Q: How did the “expression levels of Sdf-1a, KitI, and Angpt1 in osteoblasts” value [1] turn out when “NPY (24-31): recombinant peptide consisting of eight amino acids of NPY, SEQ ID NO: 2 (LRHYINLI; synthetic neuropeptide Y fragment (24-31))” was run?
A: Its value is “decreased only in osteoblasts treated with NPY (21-28)”.

Q: For “NPY (29-36): recombinant peptide consisting of eight amino acids of NPY, SEQ ID NO: 3 (NLITRQRY; ends and bridges not checked)”, which “expression levels of Sdf-1a, KitI, and Angpt1 in osteoblasts” value [1] is on record?
A: The value was “decreased only in osteoblasts treated with NPY (21-28)”.

Q: What does the source list for “NPY: full length neuropeptide Y purchased from Bachem, used as positive control [reference compound]”?
A: bone tissue thickness (trabecular thickness) [2]: increased; percentage of bone density (BV/TV) [2]: increased; number of TRAP positive osteoclasts in bone marrow (Number of osteoclast/Bone surface) [3]: reduced; osteoclast surface (Osteoclast surface/Bone surface) [3]: reduced
